pEC50, pIC50: −log10 of the molar value.
What was measured:
[1] = molecular target: T1, GLS1 (purified recombinant human GAC) (Homo sapiens, UniProt O94925); test: GLS1 enzymatic activity assay (dual-coupled, Amplex UltraRed/resorufin); type: biochemical
T1 sequence (O94925 55-598 isoform O94925-3 limits assumed): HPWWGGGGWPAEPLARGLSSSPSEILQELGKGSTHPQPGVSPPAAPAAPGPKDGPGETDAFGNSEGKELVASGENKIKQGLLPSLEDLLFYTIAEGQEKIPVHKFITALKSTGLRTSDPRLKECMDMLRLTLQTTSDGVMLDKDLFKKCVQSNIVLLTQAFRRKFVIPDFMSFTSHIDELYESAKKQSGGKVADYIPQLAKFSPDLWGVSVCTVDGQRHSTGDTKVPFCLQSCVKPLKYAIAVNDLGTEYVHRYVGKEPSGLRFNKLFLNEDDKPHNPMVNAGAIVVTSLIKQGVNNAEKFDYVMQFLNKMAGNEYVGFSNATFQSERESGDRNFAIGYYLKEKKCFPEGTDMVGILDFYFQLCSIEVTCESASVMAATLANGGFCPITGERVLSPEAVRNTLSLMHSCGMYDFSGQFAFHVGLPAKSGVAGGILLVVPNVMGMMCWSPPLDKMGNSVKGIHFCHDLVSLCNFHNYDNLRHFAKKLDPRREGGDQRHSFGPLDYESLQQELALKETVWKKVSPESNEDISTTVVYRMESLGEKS
How it was run: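 In this coupled fluorometric format, phosphate-activated GAC (2 nM, 50 mM phosphate) is pre-exposed to compound for 10 min before 1 mM glutamine addition. Product is tracked as resorufin (530/590 nm) over time or at 20 min, and potency is derived by logistic fitting.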

A549 cells = test: A549 proliferation (viability) assay, Cell Titer Fluor, 72 hours; type: cell-based; details: Homo sapiens
Experimental: A549 cells were routinely maintained in RPMI 1640 media (Gibco catalog number 11875-093) supplemented with 10% dialyzed fetal bovine serum using a humidified incubator (37° C., 5% CO2 and ambient O2). In preparation for the viability assay, cells were inoculated into 384-well black CulturPlates (Perkin Elmer) at a density of 1000 cells/well in a volume of 40 uL. Following a 24-hour incubation at 37° C., 5% CO2 and ambient O2, cells were treated with compound (10 uL) in a final DMSO concentration of 0.5% (v/v). The microplates were then incubated for 72 hours (37° C., 5% CO2 and ambient O2). Cell Titer Fluor (Promega) was subsequently added (10 uL of 6× reagent) and mixed for 15 minutes at room temperature. The plates were then incubated for 30 minutes (37° C., 5% CO2 and ambient O2) and fluorescence was subsequently read on the Perkin Elmer Envision plate reader. EC50 values were calculated using a four-parameter logistic curve fit.

pIC50 [1]	pEC50 (A549 cells)	SMILES
> 7.00	5.30 to 6.30	O=C(CC1CCOCC1)Nc1ccn(CCCCn2cc(C(=O)NCc3cccc(OC(F)(F)F)c3)nn2)c(=O)c1 [Example 48, 1-(4-{4-[2-(oxan-4-yl)acetamido]-2-oxo-1,2-dihydropyridin-1-yl}butyl)-N-{[3-(trifluoromethoxy)phenyl]methyl}-1H-1,2,3-triazole-4-carboxamide]
6.30 to 7.00	5.30 to 6.30	O=C(NCc1ccccn1)c1ccn(CCCCn2cc(C(=O)NCc3cccc(OC(F)(F)F)c3)nn2)c(=O)c1 [Example 49, 2-oxo-N-(pyridin-2-ylmethyl)-1-{4-[4-({[3-(trifluoro-methoxy)phenyl]methyl}carbamoyl)-1H-1,2,3-triazol-1-yl]butyl}-1,2-dihydropyridine-4-carboxamide]
5.30 to 6.30	< 5.30	CC(=O)Nc1ccn(CCCCn2cc(C(=O)NCc3cccc(OC(F)(F)F)c3)nn2)c(=O)c1 [Example 50, 1-[4-(4-acetamido-2-oxo-1,2-dihydropyridin-1-yl)butyl]-N-{[3-(trifluoromethoxy)phenyl]methyl}-1H-1,2,3-triazole-4-carboxamide]
> 7.00	5.30 to 6.30	O=C(Cc1cccc(OC(F)(F)F)c1)Nc1ccn(CCCCn2cc(C(=O)NCc3ccccc3)nn2)c(=O)c1 [Example 51, N-benzyl-1-[4-(2-oxo-4-{2-[3-(trifluoromethoxy)phenyl]acetamido}-1,2-dihydropyridin-1-yl)butyl]-1H-1,2,3-triazole-4-carboxamide]
> 7.00	6.30 to 7.00	O=C(Cc1cccc(OC(F)(F)F)c1)Nc1ccn(CCCCn2cc(C(=O)NCc3cccc(OC(F)(F)F)c3)nn2)c(=O)c1 [Example 52, 1-[4-(2-oxo-4-{2-[3-(trifluoromethoxy)phenyl]acetamido}-1,2-dihydropyridin-1-yl)butyl]-N-{[3-(trifluoromethoxy)phenyl]methyl}-1H-1,2,3-triazole-4-carboxamide]
> 7.00	5.30 to 6.30	CS(=O)(=O)c1cccc(CNC(=O)c2cn(CCCCn3ccc(NC(=O)Cc4cccc(OC(F)(F)F)c4)cc3=O)nn2)c1 [Example 53, N-[(3-methanesulfonylphenyl)methyl]-1-[4-(2-oxo-4-{2-[3-(trifluoromethoxy)phenyl]acetamido}-1,2-dihydropyridin-1-yl)butyl]-1H-1,2,3-triazole-4-carboxamide]
6.30 to 7.00	5.30 to 6.30	CC(C)C(=O)Nc1ccn(CCCCn2cc(C(=O)NCc3cccc(OC(F)(F)F)c3)nn2)c(=O)c1 [Example 54, 1-{4-[4-(2-methylpropanamido)-2-oxo-1,2-dihydropyridin-1-yl]butyl}-N-{[3-(trifluoromethoxy)phenyl]methyl}-1H-1,2,3-triazole-4-carboxamide]
> 7.00	6.30 to 7.00	O=C(Cc1ccccc1F)Nc1ccn(CCCCn2cc(C(=O)NCc3cccc(OC(F)(F)F)c3)nn2)c(=O)c1 [Example 55, 1-(4-{4-[2-(2-fluorophenyl)acetamido]-2-oxo-1,2-dihydropyridin-1-yl}butyl)-N-{[3-(trifluoromethoxy)phenyl]methyl}-1H-1,2,3-triazole-4-carboxamide]
> 7.00	5.30 to 6.30	O=C(CC1CCCOC1)Nc1ccn(CCCCn2cc(C(=O)NCc3cccc(OC(F)(F)F)c3)nn2)c(=O)c1 (stereo not drawn) [Example 56, 1-(4-{4-[2-(oxan-3-yl)acetamido]-2-oxo-1,2-dihydropyridin-1-yl}butyl)-N-{[3-(trifluoromethoxy)phenyl]methyl}-1H-1,2,3-triazole-4-carboxamide]
6.30 to 7.00	5.30 to 6.30	O=C(Nc1ccn(CCCCn2cc(C(=O)NCc3ccccn3)nn2)c(=O)c1)OCc1ccccc1 [Example 57, benzyl N-[2-oxo-1-(4-{4-[(pyridin-2-ylmethyl)carbamoyl]-1H-1,2,3-triazol-1-yl}butyl)-1,2-dihydropyridin-4-yl]carbamate]
5.30 to 6.30	< 5.30	CNC(=O)c1ccn(CCCCn2cc(C(=O)NCc3cccc(OC(F)(F)F)c3)nn2)c(=O)c1 [Example 58, N-methyl-2-oxo-1-{4-[4-({[3-(trifluoromethoxy)phenyl]methyl}carbamoyl)-1H-1,2,3-triazol-1-yl]butyl}-1,2-dihydropyridine-4-carboxamide]
> 7.00	6.30 to 7.00	O=C(NCc1cccc(OC(F)(F)F)c1)c1ccn(CCCCn2cc(C(=O)NCc3cccc(OC(F)(F)F)c3)nn2)c(=O)c1 [Example 59, 2-oxo-N-{[3-(trifluoromethoxy)phenyl]methyl}-1-{4-[4-({[3-(trifluoro-methoxy)phenyl]methyl}carbamoyl)-1H-1,2,3-triazol-1-yl]butyl}-1,2-dihydropyridine-4-carboxamide]
6.30 to 7.00	< 5.30	O=C(NCc1cccnc1)c1ccn(CCCCn2cc(C(=O)NCc3cccc(OC(F)(F)F)c3)nn2)c(=O)c1 [Example 60, 2-oxo-N-(pyridin-3-ylmethyl)-1-{4-[4-({[3-(trifluoro-methoxy)phenyl]methyl}carbamoyl)-1H-1,2,3-triazol-1-yl]butyl}-1,2-dihydropyridine-4-carboxamide]
6.30 to 7.00	5.30 to 6.30	COc1ccc(CNC(=O)c2ccn(CCCCn3cc(C(=O)NCc4cccc(OC(F)(F)F)c4)nn3)c(=O)c2)c(OC)c1 [Example 61, N-[(2,4-dimethoxyphenyl)methyl]-2-oxo-1-{4-[4-({[3-(trifluoro-methoxy)phenyl]methyl}carbamoyl)-1H-1,2,3-triazol-1-yl]butyl}-1,2-dihydropyridine-4-carboxamide]
6.30 to 7.00	5.30 to 6.30	CC(C)CNC(=O)c1ccn(CCCCn2cc(C(=O)NCc3cccc(OC(F)(F)F)c3)nn2)c(=O)c1 [Example 62, N-(2-methylpropyl)-2-oxo-1-{4-[4-({[3-(trifluoromethoxy)phenyl]methyl}carbamoyl)-1H-1,2,3-triazol-1-yl]butyl}-1,2-dihydropyridine-4-carboxamide]
> 7.00	6.30 to 7.00	O=C(NCC1CCCCC1)c1ccn(CCCCn2cc(C(=O)NCc3cccc(OC(F)(F)F)c3)nn2)c(=O)c1 [Example 63, N-(cyclohexylmethyl)-2-oxo-1-{4-[4-({[3-(trifluoro-methoxy)phenyl]methyl}carbamoyl)-1H-1,2,3-triazol-1-yl]butyl}-1,2-dihydropyridine-4-carboxamide]
> 7.00	6.30 to 7.00	O=C(Nc1ccn(CCCCn2cc(C(=O)NCc3cccc(OC(F)(F)F)c3)nn2)c(=O)c1)OCc1cccc(OC(F)(F)F)c1 [Example 64, [3-(trifluoromethoxy)phenyl]methyl N-(2-oxo-1-{4-[4-({[3-(trifluoro-methoxy)phenyl]methyl}carbamoyl)-1H-1,2,3-triazol-1-yl]butyl}-1,2-dihydropyridin-4-yl)carbamate]
> 7.00	5.30 to 6.30	COc1cccc(CNC(=O)c2cn(CCCCn3ccc(NC(=O)Cc4cccc(OC(F)(F)F)c4)cc3=O)nn2)c1 [Example 65, N-[(3-methoxyphenyl)methyl]-1-[4-(2-oxo-4-{2-[3-(trifluoromethoxy)phenyl]acetamido}-1,2-dihydropyridin-1-yl)butyl]-1H-1,2,3-triazole-4-carboxamide]
> 7.00	5.30 to 6.30	O=C(Cc1cccc(OC(F)(F)F)c1)Nc1ccn(CCCCn2cc(C(=O)NCc3cccc(F)c3)nn2)c(=O)c1 [Example 66, N-[(3-fluorophenyl)methyl]-1-[4-(2-oxo-4-{2-[3-(trifluoromethoxy)phenyl]acetamido}-1,2-dihydropyridin-1-yl)butyl]-1H-1,2,3-triazole-4-carboxamide]
> 7.00	5.30 to 6.30	COc1ccc(CNC(=O)c2cn(CCCCn3ccc(NC(=O)Cc4cccc(OC(F)(F)F)c4)cc3=O)nn2)cc1 [Example 67, N-[(4-methoxyphenyl)methyl]-1-[4-(2-oxo-4-{2-[3-(trifluoromethoxy)phenyl]acetamido}-1,2-dihydropyridin-1-yl)butyl]-1H-1,2,3-triazole-4-carboxamide]
> 7.00	< 5.30	CS(=O)(=O)c1ccc(CNC(=O)c2cn(CCCCn3ccc(NC(=O)Cc4cccc(OC(F)(F)F)c4)cc3=O)nn2)cc1 [Example 68, N-[(4-methanesulfonylphenyl)methyl]-1-[4-(2-oxo-4-{2-[3-(trifluoromethoxy)phenyl]acetamido}-1,2-dihydropyridin-1-yl)butyl]-1H-1,2,3-triazole-4-carboxamide]

— patent US20160002204A1 (Board of Regents, The University of Texas System, priority 2014, published 2016)
